Measurements published in US9452195B2, “Use of CHEC peptides to treat neurological and cardiovascular diseases and disorders” (Drexel University, priority 2010, dated 2016).

What was measured:
phospholipase A2 (sPLA2) = conditions: statement referring to earlier patents and applications; cited from earlier work
neuron = conditions: cited from earlier work
[1] = system: KA induced motor seizures in rats; assay: Kainic acid (KA) induced motor seizures in rats, graded by Racine scale; type: in vivo, rat; set-up: key to Max Seizure Stage: 1: hypoactivity, mouth and facial automatism; 2: head nodding and mastication; 3: forelimb clonus without rearing; 4: bilateral forelimb clonus and rearing; 5: rearing and loss of posture; Status epilepticus: stage 4-5 lasting for 30 min,
Experimental: Kainic acid (KA) was administered intraperitoneal (IP) to rats at doses ranging from […]. Rats age postnatal day (P) 12-15 were administered 2 mg/kg KA. Rats age P35-40 were administered 6 mg/kg KA. The KA was delivered in a constant volume of phosphate buffer (5 ml/kg) and reliably produced motor seizure activity.
Following IP administration of KA, rats were video-recorded for 3 hours, and then daily for 3 hours. The video recordings are later scored blind. The severity and latency of seizures is graded for P35 rats by a classical scale shown in Table 1 (Racine, 1972, Electroencephalog. Clin. Neurophysiol. 32:281-294).
Rats (250-300 g) are done in pairs and administered either a control peptide/vehicle or CHEC peptide in vehicle at various intervals pre- or post KA treatment. Control or CHEC peptide are administered either 4, 2 or 0.5 hours pre-KA or 0.25, and 0.5 hrs post-KA. The effects of CHEC-7 and CHEC-9 are compared because the peptides have different pharmakinetic profiles in rat.
Forty minutes prior to KA administration, the rats were administered either control peptide or CHEC-9 at the indicated dosages and routes of administration. The resulting motor seizures were graded as described elsewhere herein. […] In one set of experiments, rats were pre-fed lecithin or phosphatidylcholine prior to administering the KA.

[2] = system: hippocampal neuronal activity in kainic acid-treated rats; assay: Multiunit activity in CA1 cell field of hippocampus of kainic acid treated rats; type: in vivo, rat; conditions: CHEC-9 1 mg/kg orally 40 min before KA 10 mg/kg IP
Description: FIG. 1, is a graph depicting multiunit activity recorded from the CA1 cell field of the hippocampus of awake, freely moving kainic acid-treated rats that have been treated either with CHEC-9 or vehicle. Multiunit activity is presented as impulses recorded per second and provided as a percentage of baseline activity measured prior to seizure induction.
Rats were implanted with a multichannel electrode bundle placed in the CA1 cell field of the hippocampus one week prior to the experiment. Baseline hippocampal neuronal activity (impulses per second) was collected during a 30 minute control period. After 30 minutes of baseline neuronal activity was collected, either CHEC-9 (1 mg/kg) or vehicle was administered orally 40 min prior to IP administration of kainic acid (10 mg/kg). The duration of the KA administration varied. Neuronal activity in response to KA administration is presented as % of baseline activity (FIG. 1).

| Substance | inhibition of phospholipase A2 / sPLA2 (phospholipase A2 (sPLA2)) | neuron protective activity (neuron) | Max Seizure Stage ([1]; individual rat, C9 0.5 mg/kg sc 40 min before KA 6 mg/kg ip) | Max Seizure Stage ([1]; individual rat, C9 1.0 mg/kg po 40 min before KA 5 mg/kg ip) | Max Seizure Stage ([1]; individual rats, C9 0.5 mg/kg sc 40 min before KA 5 mg/kg ip) | Max Seizure Stage ([1]; individual rats, C9 1.0 mg/kg po 40 min before KA 10 mg/kg ip, female rats) | Max Seizure Stage ([1]; individual rats, C9 1.0 mg/kg po 40 min before KA 10 mg/kg ip, male rats) | likelihood of severe motor seizures versus vehicle control ([1]; rats 250-300 g, peptide given 40 min before KA) | seizure symptoms by the end of the experiment ([2]; vehicle rat reached status epilepticus) | effect of KA on neuronal activity (multiunit activity, % of baseline) ([2]; versus vehicle) |
| --- | --- | --- | --- | --- | --- | --- | --- | --- | --- | --- |
| CAHAQAESC [CHEC-9 peptide variant] | inhibit phospholipase A2 | also has neuron protective activity |  |  |  |  |  |  |  |  |
| CHEASAAQC [CHEC-9] | inhibit phospholipase A2 |  | 2 | 1 | 1 | 3 | 1 | vehicle control were more likely to exhibit severe motor seizures than rats that were administered CHEC-9 | no obvious symptoms | much smaller effect of KA on neuronal activity |
| CHEASQC [CHEC-7] | even more potent as a sPLA2 inhibitor than CHEC-9 |  |  |  |  |  |  |  |  |  |
